Reference: US9669104B2, “Nanocomplex containing amphipathic peptide useful for efficient transfection of biomolecules” (Council of Scientific and Industrial Research, priority 2012, dated 2017)
Entries after “also recorded” stand apart in the source; their conditions may differ.

Columns and labels:
CHO-K1 cells [1] = test: Cellular uptake of small RNA (Siglo) by flow cytometry; format: cell-based, Chinese hamster; details: Siglo non-covalently complexed; for small RNA delivery: charge ratio 5; for uptake of the small RNA (fluorescence positive cells): charge ratio 5, CHO-K1, 4 h
Method: (§1) The uptake of the small RNA, which is noncovalently complexed with the peptides, was almost 100% in CHO-K1 cells at charge ratio 5 for Mgpe-9 and Mgpe-10. Siglo was used as a model small RNA. This RNA was used to prepare the nanocomplexes with the peptide at charge ratio 5.0. Chinese hamster ovary cells (CHO-K1) were maintained in Ham's F-12K media supplemented with 10% (v/v) Fetal bovine serum (Life Technologies, USA); at 37° C. and 5% CO2 in humidified incubator. Cells were grown in 24 well plate which was seeded 24 h before use. At a confluency of 70-80% the cells were treated with labelled nanocomplexes for 4 h at 37° C. After incubation, the media was removed and cells were washed twice with PBS supplemented with heparin (1 mg/ml). The cells were then treated with trypsin (0.25%) for 5-10 min and harvested in complete media, pelleted down, washed with PBS, resuspended in PBS having 1% BSA and then analyzed on FACS-Calibur™ (Becton Dickinson, USA) using CellQuest. Pro software. The labelled nanocomplexes were excited using 488 nm laser and detected with 530/30 nm (FL1) band pass filter. In each case total 10,000 events were acquired. Percentage of fluorescence positive cells was plotted as bars and their mean intensity was plotted as a line.
as §1, with “Siglo” for “The uptake of the small RNA, which is noncovalently complexed with the peptides, was almost 100% in CHO-K1 cells at charge ratio 5 for Mgpe-9 and Mgpe-10. Siglo”, “RNA” for “RNA.”, “plates” for “plate”, “CellQuest” for “CellQuest.”, “line. The uptake of the small RNA, which is noncovalently complexed with the peptides, was almost 100% in CHO-K1 cells at charge ratio 5 for Mgpe-9 and Mgpe-10. […] Nanocomplex containing invented peptide can carry biomolecules in the range of 20 bp to 7 kbp size.” for “line.”

[2] = Size and zeta potential of nanocomplexes by DLS; format: physicochemical; details: nanocomplexes with DNA at charge ratio 10, DNA 25 ng/μl; for Size (nm): deionized water, 25° C.
Method: The mean hydrodynamic diameter and zeta potential of nanocomplexes prepared at charge 10.0 at 25 ng/μl of DNA concentration in deionized water were measured by Zeta sizer Nano ZS (Malvern Instruments, UK) at a fixed angle of 173° at 25° C. Minimum of 3 readings were recorded for each sample with replicates. As presented in Table-2 all the peptides were able to make nanocomplexes with DNA. The size of nanocomplexes was ranging from 50 to 110 nm and Zeta potential was ranging from 30 to 60 mV.
The mean hydrodynamic diameter and zeta potential of nanocomplex (Table 2) prepared at charge 10 at 25 ng/μl of DNA concentration in deionized water were measured by Zeta sizer Nano ZS (Malvern Instruments, UK) at a fixed angle of 173° at 25° C. Minimum of 3 readings were recorded for each sample with replicates. All five invented peptides were able to Make monodisperse nanocomplex with sizes ranging from 50 nm to 110 nm with DNA.

MCF-7 = test: Luciferase transfection efficiency in MCF-7 cells; format: cell-based; details: MCF-7, charge ratio 5
Text: (§2) The transfection efficiency in terms of reporter gene expression has been checked using luciferase reporter assay. A plasmid (pMIR-Report™ Luciferase) containing luciferase gene was complexed with the peptide and transfected to the cell. The nanocomplexes were made at different charge ratios and transfected in a wide range of cell lines. CHO-K1 cells were maintained in Ham's F-12K media and MCF-7 and A549 cells in low glucose DMEM supplemented with 10% (v/v) Fetal bovine serum (Life Technologies, USA); at 37° C. and 5% CO2 in humidified incubator. Cells were seeded 24 h before transfection in 24-well plates. […] Luciferase expression was measured in 50 μl of cell lysate supernatant using the luciferase assay substrate (Promega). Light emission was measured by integration over 1 Os in Orion microplate luminometer (Berthold Detection System, Germany). […]
(§3) CHO-K1 cells were maintained in Ham's F-12K media and MCF-7 and A549 cells in low glucose DMEM supplemented with 10% (v/v) Fetal bovine serum (Life Technologies, USA); at 37° C. and 5% CO2 in humidified incubator. […] Luciferase expression was measured in 50 μl of cell lysate supernatant using the luciferase assay substrate (Promega). Light emission was measured by integration over 10 s in Orion micro plate luminometer (Berthold Detection System, Germany). […]

CHO-K1 cells [3] = test: Transfection in presence of 10% serum; format: cell-based, Chinese hamster; details: CHO-K1, charge ratio 20
CHO-K1 cells [4] = test: Luciferase transfection efficiency in CHO-K1 cells; format: cell-based, Chinese hamster
Text: The transfection efficiency in terms of reporter gene expression has been checked using luciferase reporter assay. A plasmid (pMIR-Report™ Luciferase) containing luciferase gene was complexed with the peptide and transfected to the cell. The nanocomplexes were made at different charge ratios and transfected in a wide range of cell lines. CHO-K1 cells were maintained in Ham's F-12K media and MCF-7 and A549 cells in low glucose DMEM supplemented with 10% (v/v) Fetal bovine serum (Life Technologies, USA); at 37° C. and 5% CO2 in humidified incubator. Cells were seeded 24 h before transfection in 24-well plates. Nanocomplexes were prepared with final DNA concentration of 20 ng/μl and incubated for 1 h at room temperature. 100 μl of nanocomplex was added to cells at ˜70% confluency in serum-free media (OptiMEM, Invitrogen). After 5 h of incubation at 37° C. and 5% CO2 in humidified incubator, the media was aspirated; cells were washed with phosphate buffered saline (PBS, pH 7.4) and supplemented with 500 μl of complete growth medium. After 24 h, cells were washed with PBS and lysed with 100 μl of cell culture lysis buffer (1×CCLR, Promega). Luciferase expression was measured in 50 μl of cell lysate supernatant using the luciferase assay substrate (Promega). Light emission was measured by integration over 1 Os in Orion microplate luminometer (Berthold Detection System, Germany). Luciferase activity was normalized with total protein content of the cells estimated using BCA protein assay (Pierce).
CHO-K1 cells were maintained in Ham's F-12K media and MCF-7 and A549 cells in low glucose DMEM supplemented with 10% (v/v) Fetal bovine serum (Life Technologies, USA); at 37° C. and 5% CO2 in humidified incubator. Cells were seeded 24 h before transfection in 24-well plates. A plasmid (pMIR-Report™ Luciferase) containing luciferase gene was complexed with the peptide and transfected to the cell. The nanocomplexes were made at different charge ratios and transfected in a wide range of cell lines. Nanocomplexes were prepared with final DNA concentration of 20 ng/μl and incubated for 1 h at room temperature. 100 μl of nanocomplex was added to cells at 70% confluency in serum-free media (OptiMEM, Invitrogen). Cellfectin, Superfect and Lipofectamine2000 used as manufacturer protocol. In case of transfection in presence of serum, nanocomplexes were added in complete media. […] Luciferase expression was measured in 50 μl of cell lysate supernatant using the luciferase assay substrate (Promega). Light emission was measured by integration over 10 s in Orion micro plate luminometer (Berthold Detection System, Germany). […]

A549 = test: Luciferase transfection efficiency in A549 cells; format: cell-based; details: A549, charge ratio 5
Text: as §2, §3

Sequence | small RNA delivery (CHO-K1 cells [1]) | uptake of the small RNA (fluorescence positive cells) (CHO-K1 cells [1]) [%] | PDI [2] | Zeta potential(mV) [2] [mV] | Size (nm) [2] [nm] | transfection efficiency (luciferase) (MCF-7) | transfection efficiency in presence of serum (CHO-K1 cells [3]) | transfection efficiency compared with Cellfectin, Superfect and Lipofectamine 2000 (CHO-K1 cells [4]; CHO-K1, charge ratio 5) | transfection efficiency (luciferase) (CHO-K1 cells [4]; CHO-K1, charge ratio 5, plasmid DNA non-covalently complexed) | transfection efficiency (luciferase) (A549) | transfection efficiency compared with Cellfectin and Superfect (CHO-K1 cells [4]; CHO-K1, charge ratio 5) | transfection efficiency compared with Cellfectin and Superfect (CHO-K1 cells [4]; CHO-K1, charge ratio 10)
CLLYWFRRRHRHHRRRHRRC [Mgpe-10, Mgpe-4 with a cysteine residue at each end] | found to show small RNA delivery | ~100 | 0.206 ± 0.004 | 57.6 ± 3.2 | 66.2 ± 0.7 |  |  |  |  |  |  | 
CRRLRHLRHHYRRRWHRFRC [Mgpe-9, Mgpe-3 with a cysteine residue at each end] | found to show small RNA delivery | ~100 | 0.169 ± 0.002 | 43.4 ± 0.1 | 75.8 ± 3.8 | more than 10^8 RLU/mg protein | up to 10^7 RLU/mg protein | higher or equal transfection efficiency; also recorded: highest transfection efficiency | more than 10^8 RLU/mg protein | more than 10^6 RLU/mg protein |  | 
LLYWFRRRHRHHRRRHRR [Mgpe-4, primary amphipathic peptide by rearrangement of the amino acids of Mgpe-3] |  |  | 0.155 ± 0.010 | 25.4 ± 0.2 | 62.8 ± 7.0 |  |  |  |  |  | higher or equal transfection efficiency | 
RRLRHLRHHYRRRWHRFR [Mgpe-3] |  |  | 0.152 ± 0.014 | 33.5 ± 5.9 | 63.2 ± 4.5 |  |  |  |  |  |  | higher or equal transfection efficiency
SRLSHLRHHYSKKWHRFR (listed as Homo sapiens) [Mgpe-1, 18 mer amphipathic peptide derived from Human Protein phosphatase 1E; tested as nanocomplex with plasmid DNA] |  |  | 0.151 ± 0.031 | 36.5 ± 0.8 | 80.1 ± 7.3 |  |  |  |  |  |  | 
